Source: patent US9161990B2, “Hydrochloride salts of a glycopeptide-cephalosporin antbiotic compond” (THERAVANCE BIOPHARMA ANTIBIOTICS IP, LLC, priority 2013, dated 2015)
Where a name gives a salt, the structure may show the parent alone.

Assays:
[1] = Storage stability of lyophilized hydrochloride salts (purity by HPLC); format: physicochemical
Procedure: (§1) All solvents were HPLC grade and were purchased from Honeywell Burdick & Jackson (Muskegon, Mich. 49442). Phosphoric acid (85% w/w) and sodium dihydrogen phosphate were HPLC grade and were purchased from Fluka (Sigma-Aldrich, St. Louis, Mo. 63103). All reagents were used without further purification.
(§2) Test samples were filtered through a 0.2 μm polyvinylidene fluoride (PVDF) filter before analysis and the first 1 mL was discarded.
(§3) Test sample purity was determined based on the integrated peak area (area-under-the-curve or AUC) for the compound as a percentage of all integrated peaks. The concentration (assay value) of the compound in a test sample was determined by comparison with a reference standard.
(§4) One rack was stored protected from light in a drawer at room temperature and the other rack was stored in a refrigerator at 2 to 8° C. A representative vial of each type of stability sample was analyzed by HPLC after storage for 1, 3, 6 and 12 months to determine purity.

[2] = Storage stability of hydrochloride salts in a lyophilized composition containing sucrose and glycine (purity by HPLC); format: physicochemical; conditions: Trihydrochloride; for Purity (HPLC area percent) / Δ (change in percent purity from time = 0): composition containing sucrose and glycine; for decrease in purity: formulated with sucrose and glycine, listed as trihydrochloride salt
Procedure: as §1, §2, §3, §4

[3] = refrigerated temperature (2 to 8° C.), 1 month, Trihydrochloride
[4] = refrigerated temperature (2 to 8° C.), 3 months, Trihydrochloride
[5] = refrigerated temperature (2 to 8° C.), 6 months, Trihydrochloride
[6] = refrigerated temperature (2 to 8° C.), 12 months, Trihydrochloride
[7] = room temperature, 1 month, Trihydrochloride
[8] = room temperature, 3 months, Trihydrochloride
[9] = room temperature, 6 months, Trihydrochloride
[10] = room temperature, 12 months, Trihydrochloride
[11] = refrigerated temperature (2 to 8° C.), 1 month
[12] = refrigerated temperature (2 to 8° C.), 6 months
[13] = refrigerated temperature (2 to 8° C.), 12 months

Purity (HPLC area percent) [1, 3]: 84.0% | Δ (change in percent purity from time = 0) [1, 3]: −0.5% | Purity (HPLC area percent) [1, 4]: 80.7% | Δ (change in percent purity from time = 0) [1, 4]: −3.8% | Purity (HPLC area percent) [1, 5]: 79.4% | Δ (change in percent purity from time = 0) [1, 5]: −5.1% | Purity (HPLC area percent) [1, 6]: 76.0% | Δ (change in percent purity from time = 0) [1, 6]: −8.6% | Purity (HPLC area percent) ([1]; refrigerated temperature (2 to 8° C.), time 0 months, Trihydrochloride): 84.5% | Purity (HPLC area percent) [1, 7]: 74.8% | Δ (change in percent purity from time = 0) [1, 7]: −9.7% | Purity (HPLC area percent) [1, 8]: 69.5% | Δ (change in percent purity from time = 0) [1, 8]: −15.0% | Purity (HPLC area percent) [1, 9]: 56.5% | Δ (change in percent purity from time = 0) [1, 9]: −28.0% | Purity (HPLC area percent) [1, 10]: 50.4% | Δ (change in percent purity from time = 0) [1, 10]: −34.2% | Purity (HPLC area percent) ([1]; room temperature, time 0 months, Trihydrochloride): 84.5% | decrease in purity ([1]; stored at 2 to 8° C. for 12 months, listed as trihydrochloride salt, Trihydrochloride): 8.6% | decomposition on storage ([1]; stored at room temperature or at refrigerated temperature (about 2 to about 8° C.)): decompose significantly | Purity (HPLC area percent) [2, 11]: 91.5% | Δ (change in percent purity from time = 0) [2, 11]: 0.2% | Δ (change in percent purity from time = 0) ([2]; refrigerated temperature (2 to 8° C.), 3 months): −0.5% | Purity (HPLC area percent) [2, 12]: 92.8% | Δ (change in percent purity from time = 0) [2, 12]: 1.5% | Purity (HPLC area percent) [2, 13]: 90.1% | Δ (change in percent purity from time = 0) [2, 13]: −1.2% | Purity (HPLC area percent) ([2]; refrigerated temperature (2 to 8° C.), time 0 months): 91.3% | Purity (HPLC area percent) ([2]; room temperature, 1 month): 89.2% | Δ (change in percent purity from time = 0) ([2]; room temperature, 1 month): −2.1% | Purity (HPLC area percent) ([2]; room temperature, 3 months): 84.4% | Δ (change in percent purity from time = 0) ([2]; room temperature, 3 months): −6.9% | Purity (HPLC area percent) ([2]; room temperature, 6 months): 82.5% | Δ (change in percent purity from time = 0) ([2]; room temperature, 6 months): −8.8% | Purity (HPLC area percent) ([2]; room temperature, 12 months): 65.0% | Δ (change in percent purity from time = 0) ([2]; room temperature, 12 months): −26.3% | Purity (HPLC area percent) ([2]; room temperature, time 0 months): 91.3% | decrease in purity ([2]; stored at 2 to 8° C. for 12 months): 1.2% | decrease in purity ([2]; stored at room temperature for 12 months): 26.3%
Compound: CN[C@H](CC(C)C)C(=O)NC1C(=O)N[C@@H](CC(N)=O)C(=O)N[C@H]2C(=O)N[C@H]3C(=O)N[C@H](C(=O)N[C@H](C(=O)NCCCO/N=C(\C(=O)N[C@@H]4C(=O)N5C(C(=O)[O-])=C(C[n+]6ccccc6)CS[C@H]45)c4nc(N)sc4Cl)c4cc(O)cc(O)c4-c4cc3ccc4O)[C@H](O)c3ccc(c(Cl)c3)Oc3cc2cc(c3O[C@@H]2O[C@H](CO)[C@@H](O)[C@H](O)[C@H]2O[C@H]2C[C@](C)(N)[C@H](O)[C@H](C)O2)Oc2ccc(cc2Cl)[C@H]1O (stereo partly drawn) [Trihydrochloride, 26-[[[3-[[(Z)-[1-(2-Amino-5-chloro-4-thiazolyl)-2-[[(6R,7R)-2-carboxy-8-oxo-3-(pyridiniomethyl)-5-thia-1-azabicyclo[4.2.0]oct-2-en-7-yl]amino]-2-oxoethylidene]amino]oxy]propyl]amino]carbonyl]-26-decarboxyvancomycin Trihydrochloride, reference compound]
